In brackets after ≈: the same amount, converted by molar mass.
Assays:
Enterobacteriaceae [1] = assay: Antimicrobial activity against Ceftazidime non-susceptible Enterobacteriaceae assessed as susceptible isolate by broth microdilution method; assay type: functional
Pseudomonas aeruginosa [2] = assay: Antimicrobial activity against Pseudomonas aeruginosa isolated from patient by broth microdilution method
Klebsiella pneumoniae [3] = assay: Antimicrobial activity against ESBL producing Klebsiella pneumoniae by broth microdilution method; assay type: functional
Pseudomonas aeruginosa [4] = assay: Antimicrobial activity against Ceftazidime susceptible Pseudomonas aeruginosa assessed as intermediate isolate by broth microdilution method; assay type: functional
Pseudomonas aeruginosa [5] = assay: Antimicrobial activity against Pseudomonas aeruginosa isolated from non-ICU patient by broth microdilution method
Enterobacteriaceae [6] = assay: Antimicrobial activity against Ceftazidime non-susceptible Enterobacteriaceae assessed as resistant isolate by broth microdilution method; assay type: functional
Escherichia coli [7] = assay: Antimicrobial activity against Non-ESBL Escherichia coli assessed as intermediate isolate by broth microdilution method; assay type: functional
Acinetobacter [8] = assay: Antimicrobial activity against imipenem non-susceptible Acinetobacter assessed as resistant isolate by broth microdilution method; assay type: functional
Enterobacteriaceae [9] = assay: Antimicrobial activity against Enterobacteriaceae assessed as susceptible isolate by broth microdilution method; assay type: functional
Serratia marcescens [10] = assay: Antimicrobial activity against Ceftazidime susceptible Serratia marcescens assessed as intermediate isolate by broth microdilution method; assay type: functional
Klebsiella pneumoniae [11] = assay: Antimicrobial activity against Non-ESBL Klebsiella pneumoniae by broth microdilution method; assay type: functional
Citrobacter [12] = assay: Antimicrobial activity against Citrobacter with nonderepressed AmpC beta-lactamsae assessed as susceptible isolate by broth microdilution method; assay type: functional
Proteus mirabilis [13] = assay: Antimicrobial activity against ESBL producing Proteus mirabilis assessed as intermediate isolate by broth microdilution method; assay type: functional
Enterobacter cloacae [14] = assay: Antimicrobial activity against Enterobacter cloacae with nonderepressed AmpC beta-lactamsae assessed as susceptible isolate by broth microdilution method; assay type: functional
Enterobacter cloacae [15] = assay: Antimicrobial activity against Enterobacter cloacae assessed as susceptible isolate by broth microdilution method; assay type: functional
Serratia marcescens [16] = assay: Antimicrobial activity against Serratia marcescens assessed as susceptible isolate by broth microdilution method; assay type: functional
Citrobacter [17] = assay: Antimicrobial activity against Citrobacter with nonderepressed AmpC beta-lactamsae by broth microdilution method; assay type: functional
Enterobacteriaceae [18] = assay: Antimicrobial activity against ceftazidime-susceptible Enterobacteriaceae assessed as susceptible isolate by broth microdilution method; assay type: functional
Pseudomonas aeruginosa [19] = assay: Antimicrobial activity against Pseudomonas aeruginosa isolated from ICU patient by broth microdilution method; assay type: functional
Enterobacteriaceae [20] = assay: Antimicrobial activity against Ceftazidime non-susceptible Enterobacteriaceae by broth microdilution method; assay type: functional
Pseudomonas aeruginosa [21] = assay: Antimicrobial activity against imipenem susceptible Pseudomonas aeruginosa assessed as intermediate isolate by broth microdilution method; assay type: functional
Acinetobacter [22] = assay: Antimicrobial activity against Acinetobacter by broth microdilution method; assay type: functional
Acinetobacter [23] = assay: Antimicrobial activity against imipenem susceptible Acinetobacter by broth microdilution method; assay type: functional
Citrobacter [24] = assay: Antimicrobial activity against Citrobacter with nonderepressed AmpC beta-lactamsae assessed as intermediate isolate by broth microdilution method; assay type: functional
Pseudomonas aeruginosa [25] = assay: Antimicrobial activity against imipenem susceptible Pseudomonas aeruginosa by broth microdilution method; assay type: functional
Citrobacter [26] = assay: Antimicrobial activity against Citrobacter assessed as susceptible isolate by broth microdilution method; assay type: functional
Streptococcus pneumoniae [27] = assay: Antimicrobial activity against penicillin-resistant Streptococcus pneumoniae by broth microdilution method; assay type: functional
Pseudomonas aeruginosa [28] = assay: Antimicrobial activity against Pseudomonas aeruginosa by broth microdilution method; assay type: functional
Pseudomonas aeruginosa [29] = assay: Antimicrobial activity against imipenem susceptible Pseudomonas aeruginosa assessed as susceptible isolate by broth microdilution method; assay type: functional
Klebsiella pneumoniae [30] = assay: Antimicrobial activity against Non-ESBL Klebsiella pneumoniae assessed as intermediate isolate by broth microdilution method; assay type: functional
Pseudomonas aeruginosa [31] = assay: Antimicrobial activity against Pseudomonas aeruginosa assessed as susceptible isolate by broth microdilution method; assay type: functional
Enterobacter cloacae [32] = assay: Antimicrobial activity against Enterobacter cloacae by broth microdilution method; assay type: functional
Acinetobacter [33] = assay: Antimicrobial activity against imipenem susceptible Acinetobacter assessed as susceptible isolate by broth microdilution method; assay type: functional
Pseudomonas aeruginosa [34] = assay: Antimicrobial activity against Pseudomonas aeruginosa isolated from non-ICU patient by broth microdilution method; assay type: functional
Klebsiella pneumoniae [35] = assay: Antimicrobial activity against Klebsiella pneumoniae by broth microdilution method; assay type: functional
Enterobacter cloacae [36] = assay: Antimicrobial activity against Enterobacter cloacae with derepressed AmpC beta-lactamsae assessed as intermediate isolate by broth microdilution method; assay type: functional
Serratia marcescens [37] = assay: Antimicrobial activity against Ceftazidime non-susceptible Serratia marcescens assessed as susceptible isolate by broth microdilution method; assay type: functional
Acinetobacter [38] = assay: Antimicrobial activity against imipenem susceptible Acinetobacter assessed as intermediate isolate by broth microdilution method; assay type: functional
Proteus mirabilis [39] = assay: Antimicrobial activity against Proteus mirabilis by broth microdilution method; assay type: functional
Proteus mirabilis [40] = assay: Antimicrobial activity against Non-ESBL Proteus mirabilis by broth microdilution method; assay type: functional
Pseudomonas aeruginosa [41] = assay: Antimicrobial activity against Ceftazidime susceptible Pseudomonas aeruginosa assessed as susceptible isolate by broth microdilution method; assay type: functional
Citrobacter [42] = assay: Antimicrobial activity against Citrobacter with derepressed AmpC beta-lactamsae assessed as susceptible isolate by broth microdilution method; assay type: functional
Staphylococcus aureus = assay: Antimicrobial activity against methicillin-susceptible Staphylococcus aureus by broth microdilution method; assay type: functional
Serratia marcescens [43] = assay: Antimicrobial activity against Ceftazidime non-susceptible Serratia marcescens assessed as intermediate isolate by broth microdilution method; assay type: functional
Klebsiella pneumoniae [44] = assay: Antimicrobial activity against Non-ESBL Klebsiella pneumoniae assessed as susceptible isolate by broth microdilution method; assay type: functional
Klebsiella pneumoniae [45] = assay: Antimicrobial activity against Klebsiella pneumoniae assessed as susceptible isolate by broth microdilution method; assay type: functional
Enterobacter cloacae [46] = assay: Antimicrobial activity against Enterobacter cloacae with nonderepressed AmpC beta-lactamsae by broth microdilution method; assay type: functional
Streptococcus pneumoniae [47] = assay: Antimicrobial activity against penicillin-susceptible Streptococcus pneumoniae by broth microdilution method; assay type: functional; details: Streptococcus pneumoniae
Escherichia coli [48] = assay: Antimicrobial activity against ESBL producing Escherichia coli assessed as susceptible isolate by broth microdilution method; assay type: functional
Serratia marcescens [49] = assay: Antimicrobial activity against Ceftazidime susceptible Serratia marcescens assessed as susceptible isolate by broth microdilution method; assay type: functional
Enterobacteriaceae [50] = assay: Antimicrobial activity against ceftazidime-susceptible Enterobacteriaceae assessed as intermediate isolate by broth microdilution method; assay type: functional
Proteus mirabilis [51] = assay: Antimicrobial activity against Non-ESBL Proteus mirabilis assessed as intermediate isolate by broth microdilution method; assay type: functional
Enterobacteriaceae [52] = assay: Antimicrobial activity against ceftazidime-susceptible Enterobacteriaceae by broth microdilution method; assay type: functional
Pseudomonas aeruginosa [53] = assay: Antimicrobial activity against imipenem non-susceptible Pseudomonas aeruginosa assessed as susceptible isolate by broth microdilution method; assay type: functional

In the case of `C[C@@H](O)[C@H]1C(=O)N2C(C(=O)O)=C(S[C@@H]3CN[C@H](C(=O)N(C)C)C3)[C@H](C)[C@H]12` [MEROPENEM], the Activity (Enterobacteriaceae [1]) is reported as 98%, the Activity (Pseudomonas aeruginosa [2]) is reported as 3.7% and the MIC50 (Klebsiella pneumoniae [3]) is reported as 0.06 µg/mL (≈ 0.156 µM). It also gave an MIC90 (Klebsiella pneumoniae [3]) of 0.25 µg/mL (≈ 0.652 µM), an Activity (Pseudomonas aeruginosa [4]) of 4.7% and an Activity (Pseudomonas aeruginosa [5]) of 83.9%. It also gave an Activity (Enterobacteriaceae [6]) of 1.3%, an Activity (Escherichia coli [7]) of 0% and an Activity (Acinetobacter [8]) of 100%. The Activity (Enterobacteriaceae [9]) was 99.8%, the Activity (Serratia marcescens [10]) was 0% and the MIC50 (Klebsiella pneumoniae [11]) was 0.06 µg/mL (≈ 0.156 µM). The MIC90 (Klebsiella pneumoniae [11]) was 0.06 µg/mL (≈ 0.156 µM), the Activity (Citrobacter [12]) was 100% and the Activity (Proteus mirabilis [13]) was 0%. It also gave an Activity (Enterobacter cloacae [14]) of 99.5%, an Activity (Enterobacter cloacae [15]) of 99.6% and an Activity (Serratia marcescens [16]) of 99.2%. The MIC50 (Citrobacter [17]) was 0.06 µg/mL (≈ 0.156 µM), the MIC90 (Citrobacter [17]) was 0.06 µg/mL (≈ 0.156 µM) and the Activity (Enterobacteriaceae [18]) was 99.6%. The MIC50 (Pseudomonas aeruginosa [19]) was 1 µg/mL (≈ 2.61 µM), the MIC90 (Pseudomonas aeruginosa [19]) was 32 µg/mL (≈ 83.4 µM) and the MIC50 (Enterobacteriaceae [20]) was 0.12 µg/mL (≈ 0.313 µM). For the same molecule, the MIC90 (Enterobacteriaceae [20]) was 0.5 µg/mL (≈ 1.3 µM), the Activity (Pseudomonas aeruginosa [21]) was 0.7% and the MIC50 (Acinetobacter [22]) was 1 µg/mL (≈ 2.61 µM). For the same molecule, the MIC90 (Acinetobacter [22]) was > 32 µg/mL, the MIC50 (Acinetobacter [23]) was 1 µg/mL (≈ 2.61 µM) and the MIC90 (Acinetobacter [23]) was 4 µg/mL (≈ 10.4 µM). It also gave an Activity (Citrobacter [24]) of 0%, an MIC50 (Pseudomonas aeruginosa [25]) of 0.5 µg/mL (≈ 1.3 µM) and an MIC90 (Pseudomonas aeruginosa [25]) of 2 µg/mL (≈ 5.22 µM). The Activity (Citrobacter [26]) was 100%, the MIC50 (Streptococcus pneumoniae [27]) was 1 µg/mL (≈ 2.61 µM) and the MIC50 (Streptococcus pneumoniae [27]; Streptococcus pneumoniae, read-out: MIC50) was 1 µg/mL (≈ 2.61 µM). The MIC50 (Pseudomonas aeruginosa [28]) was 1 µg/mL (≈ 2.61 µM), the MIC90 (Pseudomonas aeruginosa [28]) was 16 µg/mL (≈ 41.7 µM) and the Activity (Pseudomonas aeruginosa [29]) was 98.5%. For the same molecule, the Activity (Klebsiella pneumoniae [30]) was 0%, the Activity (Pseudomonas aeruginosa [31]) was 85.3% and the MIC50 (Enterobacter cloacae [32]) was 0.06 µg/mL (≈ 0.156 µM). The MIC90 (Enterobacter cloacae [32]) was 0.25 µg/mL (≈ 0.652 µM), the Activity (Acinetobacter [33]) was 97.9% and the MIC50 (Pseudomonas aeruginosa [34]) was 1 µg/mL (≈ 2.61 µM). It also gave an MIC90 (Pseudomonas aeruginosa [34]) of 16 µg/mL (≈ 41.7 µM), an MIC50 (Klebsiella pneumoniae [35]) of 0.06 µg/mL (≈ 0.156 µM) and an MIC90 (Klebsiella pneumoniae [35]) of 0.06 µg/mL (≈ 0.156 µM). It also gave an Activity (Enterobacter cloacae [36]) of 0%, an Activity (Serratia marcescens [37]) of 100% and an Activity (Acinetobacter [38]) of 1.7%. For the same molecule, the MIC50 (Proteus mirabilis [39]) was 0.12 µg/mL (≈ 0.313 µM), the MIC90 (Proteus mirabilis [39]) was 0.25 µg/mL (≈ 0.652 µM) and the MIC50 (Proteus mirabilis [40]) was 0.12 µg/mL (≈ 0.313 µM). For the same molecule, the MIC90 (Proteus mirabilis [40]) was 0.25 µg/mL (≈ 0.652 µM), the Activity (Pseudomonas aeruginosa [41]) was 88.8% and the Activity (Citrobacter [42]) was 100%. It also gave an MIC50 (Staphylococcus aureus) of 0.12 µg/mL (≈ 0.313 µM), an MIC50 (Staphylococcus aureus; Staphylococcus aureus, read-out: MIC50) of 0.06 µg/mL (≈ 0.156 µM) and an Activity (Serratia marcescens [43]) of 0%. For the same molecule, the Activity (Klebsiella pneumoniae [44]) was 99.8%, the Activity (Klebsiella pneumoniae [45]) was 99.7% and the MIC50 (Enterobacter cloacae [46]) was 0.06 µg/mL (≈ 0.156 µM). For the same molecule, the MIC90 (Enterobacter cloacae [46]) was 0.12 µg/mL (≈ 0.313 µM), the MIC50 (Streptococcus pneumoniae [47]) was ≤ 0.015 µg/mL and the Activity (Escherichia coli [48]) was 100%. The Activity (Serratia marcescens [49]) was 99.2%, the Activity (Enterobacteriaceae [50]) was 0% and the Activity (Proteus mirabilis [51]) was 0%. It also gave an MIC50 (Enterobacteriaceae [52]) of 0.06 µg/mL (≈ 0.156 µM), an MIC90 (Enterobacteriaceae [52]) of 0.12 µg/mL (≈ 0.313 µM) and an Activity (Pseudomonas aeruginosa [53]) of 42.5%.

Source: ChEMBL document CHEMBL1275550, “In vitro activity of doripenem, a carbapenem for the treatment of challenging infections caused by gram-negative bacteria, against recent clinical isolates from the United States” (2008)
